Test results reported in EP4692105A1, “CYCLIC POLYPEPTIDE COMPOUND AND USE THEREOF” (Bivision Pharmaceuticals, Inc, priority 2023, dated 2024).
Ends that are not written are not given here.

What was measured:
[1] = molecular target: T1, FAP protein (Homo sapiens, UniProt Q12884); assay: Biacore (SPR) test of compound affinity to FAP protein; format: binding; conditions: for pKD (FAP): Biacore 8K, SA chip, 15 °C, single cycle, 1:1 binding model, pKD = -LogKD
T1 construct: purchased Sinobiological
T1 sequence (Q12884 1-760): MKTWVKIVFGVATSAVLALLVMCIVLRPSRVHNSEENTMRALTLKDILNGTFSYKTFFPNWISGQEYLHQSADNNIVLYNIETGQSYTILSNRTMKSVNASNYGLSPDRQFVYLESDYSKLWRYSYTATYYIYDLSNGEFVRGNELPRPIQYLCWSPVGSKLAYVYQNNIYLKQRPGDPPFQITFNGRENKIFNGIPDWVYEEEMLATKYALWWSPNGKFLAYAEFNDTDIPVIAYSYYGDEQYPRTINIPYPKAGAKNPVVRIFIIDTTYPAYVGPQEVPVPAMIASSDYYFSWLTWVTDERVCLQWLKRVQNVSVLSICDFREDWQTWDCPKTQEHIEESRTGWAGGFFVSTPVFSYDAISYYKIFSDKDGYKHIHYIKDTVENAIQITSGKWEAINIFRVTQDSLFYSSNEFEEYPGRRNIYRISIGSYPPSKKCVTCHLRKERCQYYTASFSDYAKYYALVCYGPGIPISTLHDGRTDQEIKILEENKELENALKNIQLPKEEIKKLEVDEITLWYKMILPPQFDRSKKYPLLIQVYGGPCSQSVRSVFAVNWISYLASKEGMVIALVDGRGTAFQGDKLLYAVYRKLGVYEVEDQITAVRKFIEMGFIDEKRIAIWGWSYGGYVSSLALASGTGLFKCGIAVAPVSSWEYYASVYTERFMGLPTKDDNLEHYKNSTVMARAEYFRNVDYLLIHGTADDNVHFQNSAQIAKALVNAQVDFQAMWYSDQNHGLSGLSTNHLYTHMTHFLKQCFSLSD
Procedure: The Biacore 8K (Cytiva) instrument was used to detect ligand binding of the FAP protein (Sinobiological). FAP protein was captured on the SA chip. Prior to ligand immobilization (flow paths 1 and 2, flow rate of 10 µL/min), FAP protein (10 µg/mL, flow rate of 5 µL/min, injection time of 600 s) was immobilized on flow path 2 using running buffer. The sensor surface was conditioned by injecting 1M NaCl three consecutive times in 50 mM NaOH. After each ligand injection, additional cleaning was performed using isopropanol in 1M NaCl and 50 mM NaOH (flow path 1 and 2, flow rate of 10 µL/min, injection time of 60 s).
The tested compound was dissolved in 100% dimethyl sulfoxide and diluted to 10 mM, then diluted in the assay buffer (PBS, pH 7.4, 1 mM TCEP ([…]), 0.05% P20, 2% dimethyl sulfoxide) to an appropriate maximum concentration. The analyte was run under the following conditions: analysis temperature of 15 °C, analysis step = all set to LMW kinetics; cycle type = single cycle (contact time of 90 s, dissociation time of 1800 s, flow rate of 30 µL/min, flow channels 1 and 2); channel detection = 2-1. Data was evaluated using the Biacore Insight Evaluation Software, and the data were fitted to a 1:1 binding model.
The Biacore results are shown in Table 2 below: pKD = -LogKD, where KD is the binding affinity of the compound to the FAP protein as measured by Biacore.

[2] = molecular target: T2, fibroblast activation protein (FAP) (Homo sapiens, UniProt Q12884); assay: Protease inhibition selectivity assay (fluorogenic substrate Z-Gly-Pro-AMC), FAP; format: biochemical; conditions: recombinant human FAP 1.2 nM, pH 7.5
T2 sequence (Q12884 1-760): T1 sequence (Q12884 1-760)
Procedure: (§1) The specificity of the synthesized compounds for recombinant human dipeptidyl peptidase IV (DPPIV), fibroblast activation protein (FAP), or prolyl oligopeptidase (PREP) was expressed by their half-maximal inhibitory concentration (IC50) against the proteases. […] It was incubated at room temperature for 10 minutes, with the plate being shaken for the first two minutes. • 6) 10 µL of the 20x substrate prepared in step 3 was added to each well and incubated at room temperature for 15 minutes, with the plate being shaken for the first two minutes. • 7) Fluorescence was read at λex:380 and λem:460.

[3] = molecular target: dipeptidyl peptidase IV (DPPIV) (Homo sapiens, UniProt P27487); assay: Protease inhibition selectivity assay (fluorogenic substrate Gly-Pro-AMC), DPPIV; format: biochemical; conditions: recombinant human DPPIV 0.1 nM, pH 7.5; read-out: pIC50 (DPPIV) (converted)
Sequence of dipeptidyl peptidase IV (DPPIV) (P27487 whole entry): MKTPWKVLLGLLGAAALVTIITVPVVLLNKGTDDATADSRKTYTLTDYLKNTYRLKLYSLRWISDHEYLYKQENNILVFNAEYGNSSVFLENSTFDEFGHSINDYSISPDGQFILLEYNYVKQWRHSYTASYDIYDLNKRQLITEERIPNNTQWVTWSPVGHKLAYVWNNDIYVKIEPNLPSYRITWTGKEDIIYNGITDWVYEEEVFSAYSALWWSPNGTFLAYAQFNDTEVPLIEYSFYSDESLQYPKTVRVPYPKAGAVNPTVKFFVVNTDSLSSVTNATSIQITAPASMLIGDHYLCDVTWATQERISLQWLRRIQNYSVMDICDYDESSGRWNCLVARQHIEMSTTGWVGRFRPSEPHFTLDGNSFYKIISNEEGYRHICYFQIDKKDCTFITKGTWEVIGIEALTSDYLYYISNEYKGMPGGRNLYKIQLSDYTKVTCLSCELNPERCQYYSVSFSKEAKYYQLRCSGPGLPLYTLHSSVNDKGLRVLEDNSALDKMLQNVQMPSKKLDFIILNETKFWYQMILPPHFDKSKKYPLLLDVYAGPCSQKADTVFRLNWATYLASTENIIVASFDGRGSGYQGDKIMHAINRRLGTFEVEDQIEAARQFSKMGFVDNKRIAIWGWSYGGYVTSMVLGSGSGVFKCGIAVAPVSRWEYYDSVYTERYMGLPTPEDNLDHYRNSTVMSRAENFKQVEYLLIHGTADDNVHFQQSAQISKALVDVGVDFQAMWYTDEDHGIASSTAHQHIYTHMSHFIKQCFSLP
Procedure: as §1

[4] = molecular target: T3, prolyl oligopeptidase (PREP) (Homo sapiens, UniProt P48147); assay: Protease inhibition selectivity assay (fluorogenic substrate Z-Gly-Pro-AMC), PREP; format: biochemical; conditions: recombinant human PREP 0.6 nM, pH 8.0
T3 sequence (P48147 1-710): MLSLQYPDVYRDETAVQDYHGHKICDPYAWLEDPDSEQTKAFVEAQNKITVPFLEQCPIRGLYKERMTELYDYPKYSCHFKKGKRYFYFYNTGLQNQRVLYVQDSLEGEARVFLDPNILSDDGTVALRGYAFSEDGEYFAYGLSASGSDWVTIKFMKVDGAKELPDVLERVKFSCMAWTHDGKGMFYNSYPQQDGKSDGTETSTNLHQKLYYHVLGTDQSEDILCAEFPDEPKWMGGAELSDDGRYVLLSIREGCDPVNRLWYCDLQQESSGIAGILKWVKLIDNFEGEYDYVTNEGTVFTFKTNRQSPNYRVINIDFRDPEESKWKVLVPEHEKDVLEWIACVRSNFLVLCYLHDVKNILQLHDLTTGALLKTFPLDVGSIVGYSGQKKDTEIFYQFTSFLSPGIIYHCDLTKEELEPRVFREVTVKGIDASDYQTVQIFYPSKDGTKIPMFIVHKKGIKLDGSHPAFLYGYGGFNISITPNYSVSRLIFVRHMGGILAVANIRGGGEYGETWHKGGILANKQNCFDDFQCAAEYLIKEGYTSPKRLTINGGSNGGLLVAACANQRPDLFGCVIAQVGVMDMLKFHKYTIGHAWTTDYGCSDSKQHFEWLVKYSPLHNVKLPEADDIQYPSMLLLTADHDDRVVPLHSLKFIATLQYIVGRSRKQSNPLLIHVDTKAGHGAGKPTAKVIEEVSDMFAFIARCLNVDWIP
Procedure: as §1

With “Hex[Cys(3MeBn)-hhy44(NH)-CO-Pro-Thr-Gln-Phe-Cys]-Lys-(DOTA)-OH (PTQFC-{K(DOTA)-OH}; not fully specified (N-terminus, bridges); also: cyclised within brackets, ring closure not given here) [JHDC07]” the “pKD (FAP)” value [1] was “B (B: 7<pKD<8)”.
In the case of `CCCCCC(=O)N[C@H]1CSCc2cc(CSCCNC(=O)CN3CCN(CC(=O)O)CCN(CC(=O)O)CCN(CC(=O)O)CC3)cc(c2)CSC[C@@H](C(=O)O)NC(=O)[C@H](Cc2ccccc2)NC(=O)[C@H](CCC(N)=O)NC(=O)[C@H]([C@@H](C)O)NC(=O)[C@@H]2CCCN2C(=O)[C@@H]2CCCN2C1=O` [FAP-2286], the Kd ([1]; read-out: pKD (FAP) (converted)) is reported as 10 to 100 nM, the IC50 [2] is reported as less than 10 nM and the IC50 [3] is reported as greater than 1000 nM. It also gave an IC50 [4] greater than 1000 nM.
With “Oct[Cys(tMeBn-DOTA-AET)-hhy39-Pro-Thr-Gln-hhy34-Cys]-Glu-(Arg-Gly-Asp(NH2))-OH [JHDC21]” the “pKD (FAP)” value [1] was “B (B: 7<pKD<8)”.
